We go through 3 molecules from PMC5333395, “Assessing histone demethylase inhibitors in cells: lessons learned” (Epigenetics & Chromatin, 2017).

One assay deals with KDM5A (Homo sapiens, UniProt P29375). The assay is described as follows: AlphaScreen in vitro demethylase assay. Type of assay: biochemical. Conditions: IC50 ± SD (number of replicates). On the procedure:
IC50 values were determined as previously described. The following amendments were made to the protocol for carrying out 2-OG competition assays.
In general terms: Alpha assays give light when donor and acceptor beads are brought close together.

Another assay deals with T1, KDM4B (Homo sapiens, UniProt O94953).
T1 sequence (O94953 1-1096): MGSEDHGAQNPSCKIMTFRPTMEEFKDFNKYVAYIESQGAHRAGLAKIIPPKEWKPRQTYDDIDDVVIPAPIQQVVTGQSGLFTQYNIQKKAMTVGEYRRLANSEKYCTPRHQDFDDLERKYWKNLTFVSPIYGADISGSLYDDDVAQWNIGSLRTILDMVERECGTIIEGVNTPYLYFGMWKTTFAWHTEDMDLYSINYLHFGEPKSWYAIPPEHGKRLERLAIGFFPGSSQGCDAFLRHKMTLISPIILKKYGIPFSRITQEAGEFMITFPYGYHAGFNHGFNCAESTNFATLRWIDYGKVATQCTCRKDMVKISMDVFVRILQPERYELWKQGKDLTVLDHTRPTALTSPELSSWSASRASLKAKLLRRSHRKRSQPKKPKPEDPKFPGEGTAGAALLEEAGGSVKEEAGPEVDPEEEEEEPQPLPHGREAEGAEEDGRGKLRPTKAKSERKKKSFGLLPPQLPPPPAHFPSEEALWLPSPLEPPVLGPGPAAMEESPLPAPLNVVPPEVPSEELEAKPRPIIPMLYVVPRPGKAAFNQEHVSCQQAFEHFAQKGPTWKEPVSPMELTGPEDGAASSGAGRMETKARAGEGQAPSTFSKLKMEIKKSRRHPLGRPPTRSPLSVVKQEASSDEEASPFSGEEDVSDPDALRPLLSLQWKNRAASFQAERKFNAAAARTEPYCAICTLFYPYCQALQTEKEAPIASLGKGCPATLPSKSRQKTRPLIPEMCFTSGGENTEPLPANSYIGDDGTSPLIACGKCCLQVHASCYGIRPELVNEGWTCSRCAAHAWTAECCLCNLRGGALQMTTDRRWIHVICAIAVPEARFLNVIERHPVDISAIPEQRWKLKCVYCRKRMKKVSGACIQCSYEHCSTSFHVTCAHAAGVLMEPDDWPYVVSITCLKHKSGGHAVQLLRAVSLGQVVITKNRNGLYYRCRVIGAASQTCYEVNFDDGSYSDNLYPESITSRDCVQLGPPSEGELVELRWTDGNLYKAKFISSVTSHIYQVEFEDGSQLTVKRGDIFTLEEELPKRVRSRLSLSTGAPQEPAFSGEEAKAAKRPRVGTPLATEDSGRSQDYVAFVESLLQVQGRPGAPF
The assay is described as follows: High-content immunofluorescence (IF) assay, overexpressed full-length FLAG-tagged KDM in HeLa cells. Type of assay: cell-based. Conditions: HeLa cells overexpressing WT KDM4B, H3K9me3 mark, 24 h; read-out: KDM4B, in cells, EC50 by IF assay (head: IC50). The procedure: (§1) HeLa cells (ATCC) were cultured at 37 °C and 5% CO2 in Minimal Essential Media—Eagle (Sigma-Aldrich, UK) supplemented with 10% heat-inactivated foetal calf serum (FCS) (Gibco, UK), and 1% L-glutaMAX (Gibco, UK) in T75 flasks (Sarstedt, UK) and passaged regularly with TrypLE (Life Technologies, UK) before cells reached confluence. On day 0, 7000 cells per well were plated on a 96-well clear bottom CellCarrier plate (PerkinElmer, UK). The next day the cells were transfected with Lipofectamine 3000 (ThermoFisher Scientific, UK) following the manufacturer’s instructions. Briefly, 0.1 µg of plasmid DNA (encoding for the respective demethylase) and 0.15 µL of Lipofectamine 3000 were diluted in separate tubes containing 5 µL OptiMEM. 0.15 µL of P3000 was added to the tube with the DNA. The two solutions were then mixed gently and allowed to incubate for 5 min at room temperature. Next, the DNA-lipid complex was added to the cells for 4 h at 37 °C and 5% CO2.
(§2) Compound dilutions were made in a 96-well PCR plate (Starlab, UK). The culture medium was supplemented with 0.4% DMSO so that the solvent concentration was maintained throughout. Compounds were serially diluted at a 1:2 or 1:3 dilution ratio. Next, the cell culture plate was removed from the incubator and the medium was gently aspirated and replaced with the fresh medium containing diluted compounds.
(§3) Then cells were rinsed once with PBS and blocked for 30 min at room temperature using 3% v/v foetal calf serum diluted in PBS.

The next assay has as its target T2, KDM4C (Homo sapiens, UniProt Q9H3R0).
T2 sequence (Q9H3R0 1-1056): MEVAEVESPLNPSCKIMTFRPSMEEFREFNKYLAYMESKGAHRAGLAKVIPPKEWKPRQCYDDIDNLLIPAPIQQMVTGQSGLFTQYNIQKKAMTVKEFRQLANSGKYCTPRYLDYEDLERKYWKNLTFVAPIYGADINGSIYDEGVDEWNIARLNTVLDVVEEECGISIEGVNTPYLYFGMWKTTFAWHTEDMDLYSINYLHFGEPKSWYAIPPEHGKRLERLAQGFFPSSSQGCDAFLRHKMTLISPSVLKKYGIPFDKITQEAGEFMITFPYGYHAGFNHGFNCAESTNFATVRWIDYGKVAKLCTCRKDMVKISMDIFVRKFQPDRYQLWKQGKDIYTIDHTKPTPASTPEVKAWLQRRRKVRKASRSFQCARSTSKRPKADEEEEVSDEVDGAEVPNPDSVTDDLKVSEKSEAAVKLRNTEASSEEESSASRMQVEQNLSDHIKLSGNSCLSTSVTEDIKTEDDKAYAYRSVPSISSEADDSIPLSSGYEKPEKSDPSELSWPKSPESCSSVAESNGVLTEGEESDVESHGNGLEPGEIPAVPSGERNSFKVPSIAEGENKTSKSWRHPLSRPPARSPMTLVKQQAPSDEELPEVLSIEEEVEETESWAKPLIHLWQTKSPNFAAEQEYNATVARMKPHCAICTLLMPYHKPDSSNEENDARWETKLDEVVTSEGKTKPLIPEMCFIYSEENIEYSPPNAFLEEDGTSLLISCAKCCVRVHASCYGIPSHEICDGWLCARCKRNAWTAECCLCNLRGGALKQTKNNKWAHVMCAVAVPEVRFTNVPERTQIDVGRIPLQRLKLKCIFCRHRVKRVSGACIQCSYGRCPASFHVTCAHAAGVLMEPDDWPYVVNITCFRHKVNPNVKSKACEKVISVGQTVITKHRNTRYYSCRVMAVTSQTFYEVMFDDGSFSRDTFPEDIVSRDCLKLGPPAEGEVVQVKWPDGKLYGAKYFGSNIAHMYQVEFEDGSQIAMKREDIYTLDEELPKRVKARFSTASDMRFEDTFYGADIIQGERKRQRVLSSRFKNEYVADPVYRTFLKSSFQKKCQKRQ
The description is as above. Type of assay: cell-based. The settings on record: HeLa cells overexpressing WT KDM4C, H3K9me3 mark, 24 h; read-out: KDM4C, in cells, EC50 by IF assay (head: IC50). The procedure: as §1, §2, §3

KDM5A, sequence (P29375 whole entry): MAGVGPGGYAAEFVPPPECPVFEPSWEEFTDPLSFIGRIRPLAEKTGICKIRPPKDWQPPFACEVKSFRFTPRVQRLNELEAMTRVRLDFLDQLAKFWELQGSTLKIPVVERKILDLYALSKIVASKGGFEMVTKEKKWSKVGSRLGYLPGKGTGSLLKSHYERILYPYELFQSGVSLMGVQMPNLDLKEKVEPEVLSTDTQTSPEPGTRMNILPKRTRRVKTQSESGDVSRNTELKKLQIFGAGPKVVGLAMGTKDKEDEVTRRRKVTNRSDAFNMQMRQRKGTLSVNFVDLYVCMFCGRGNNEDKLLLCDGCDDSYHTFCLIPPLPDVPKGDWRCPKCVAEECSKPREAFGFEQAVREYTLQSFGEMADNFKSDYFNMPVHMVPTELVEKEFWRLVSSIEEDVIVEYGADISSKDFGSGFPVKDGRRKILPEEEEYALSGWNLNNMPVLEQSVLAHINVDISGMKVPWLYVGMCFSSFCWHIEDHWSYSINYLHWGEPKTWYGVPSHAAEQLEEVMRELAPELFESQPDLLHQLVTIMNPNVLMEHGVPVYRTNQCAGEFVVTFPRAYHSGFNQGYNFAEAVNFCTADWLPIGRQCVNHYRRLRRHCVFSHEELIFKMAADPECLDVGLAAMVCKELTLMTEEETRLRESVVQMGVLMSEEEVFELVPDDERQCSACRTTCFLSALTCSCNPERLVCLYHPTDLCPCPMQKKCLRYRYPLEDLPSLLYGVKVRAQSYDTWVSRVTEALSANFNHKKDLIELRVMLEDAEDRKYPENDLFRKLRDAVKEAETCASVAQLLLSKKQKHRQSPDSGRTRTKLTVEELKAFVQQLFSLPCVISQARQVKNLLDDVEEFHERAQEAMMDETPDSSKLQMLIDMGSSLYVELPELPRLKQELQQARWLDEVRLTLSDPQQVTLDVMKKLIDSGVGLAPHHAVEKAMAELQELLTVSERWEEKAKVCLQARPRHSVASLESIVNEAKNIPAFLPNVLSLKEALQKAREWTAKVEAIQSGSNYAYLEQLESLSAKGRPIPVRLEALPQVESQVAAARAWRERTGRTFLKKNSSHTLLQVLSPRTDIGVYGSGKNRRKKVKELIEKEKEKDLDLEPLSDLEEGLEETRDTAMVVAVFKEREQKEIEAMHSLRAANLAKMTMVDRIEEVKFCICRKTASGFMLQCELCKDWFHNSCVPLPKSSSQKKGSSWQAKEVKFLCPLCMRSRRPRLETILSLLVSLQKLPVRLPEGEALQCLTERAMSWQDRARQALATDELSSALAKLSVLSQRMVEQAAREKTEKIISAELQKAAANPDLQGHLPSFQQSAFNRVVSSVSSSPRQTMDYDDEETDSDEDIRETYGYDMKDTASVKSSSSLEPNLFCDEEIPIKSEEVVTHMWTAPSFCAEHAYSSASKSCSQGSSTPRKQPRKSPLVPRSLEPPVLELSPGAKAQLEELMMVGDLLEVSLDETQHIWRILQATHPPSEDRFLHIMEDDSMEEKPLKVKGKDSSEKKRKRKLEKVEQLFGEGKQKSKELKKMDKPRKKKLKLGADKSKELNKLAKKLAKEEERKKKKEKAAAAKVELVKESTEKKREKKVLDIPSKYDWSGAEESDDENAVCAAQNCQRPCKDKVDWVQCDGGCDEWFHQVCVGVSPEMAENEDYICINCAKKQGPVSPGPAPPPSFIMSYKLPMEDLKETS

On to `CCN(CCN(C)C)C(=O)CNCc1cc(C(=O)O)ccn1` [KDOAM-20], for which 0.01 ± 0.003 µM corresponded to half-maximal inhibition against KDM5A (IC50).

Take `CCOC(=O)c1ccnc(CNCC(=O)N(CC)CCN(C)C)c1` [KDOAM-21]: inhibition against KDM5A was half-maximal at 0.068 ± 0.01 µM (IC50). The EC50 (usually the concentration that produces a half-maximal response) was found to be 10 µM at KDM4B and 17.9 µM on KDM4C.

Take `CCN(CCN(C)C)C(=O)CNCc1cncc(C(N)=O)c1` [KDOAM-32]: the half-maximal effective concentration (EC50) at KDM4B and at KDM4C was over 100 µM in each case.
